Test results reported in ChEMBL document CHEMBL5576041, “13-oxyingenol dodecanoate derivatives induce mitophagy and ferroptosis through targeting TMBIM6 as potential anti-NSCLC agents” (Eur J Med Chem, 2024).
Calls of active or inactive are those of the source. No cut-off for these calls is given here.

Columns and labels:
A549 [1] = test: Induction of autophagy in human A549 cells assessed as effect on PINK1 protein expression at 10 to 20 uM incubated for 24 hrs by Western blot analysis; format: functional, cell-based; details: dose 10-20 µM
A549 [2] = test: Induction of ferroptosis in human A549 cells assessed as increase in […] accumulation; format: functional, cell-based
A549 [3] = test: Induction of ferroptosis in human A549 cells assessed as reduction in GSH content incubated for 2 to 12 hrs; format: functional, cell-based; details: time 2-12 hrs
[4] = Selectivity index, ratio of IC50 for cytotoxicity against human BEAS-2B cells to IC50 for antiproliferative activity against human A549 cells; format: toxicity, cell-based; details: read-out: Ratio IC50
Cell membrane [5] = test: Induction of mitochondrial membrane potential loss in human A549 cells at 10 to 20 uM incubated for 6 hrs by JC-1 staining based flow cytometric analysis; format: cell membranes; details: dose 10-20 µM
HepG2 = test: Antiproliferative activity against human HepG2 cells assessed as inhibition of cell growth incubated for 24 to 72 hrs by CCK8 assay; format: functional, cell-based
A549 [6] = test: Induction of TMBIM6-VDAC1 protein-protein interaction in human A549 cells at 20 uM by immunoprecipitation analysis; format: cell-based; details: filed as activator
A549 [7] = test: Antiproliferative activity against human A549 cells assessed as inhibition of cell growth incubated for 24 to 72 hrs by CCK8 assay; format: functional, cell-based
A549 [8] = test: Induction of autophagy in human A549 cells assessed as effect on LC3II protein expression at 10 to 20 uM incubated for 24 hrs by Western blot analysis; format: functional, cell-based; details: dose 10-20 µM
A549 [9] = test: Downregulation of TMBIM6 protein expression in human A549 cells at 10 uM by Western blot analysis; format: functional, cell-based
[10] = molecular target: Non-selective voltage-gated ion channel VDAC1 (Homo sapiens) (UniProt P21796); test: Activation of VDAC1 channel in human A549 cells assessed as increase in mitochondrial Ca2+ endocytosis by staining based analysis; format: cell-based; details: filed as opener
A549 [11] = test: Induction of ferroptosis in human A549 cells assessed as increase in malondialdehyde content; format: functional, cell-based
A549 [12] = test: Increase in Ca2+ level in human A549 cell cytoplasm at 5 to 20 uM incubated for 8 hrs by confocal photographic analysis; format: functional, cell-based; details: dose 5-20 µM
A549 [13] = test: Activation of Nrf2-Keap1-HO-1 signaling pathway in human A549 cells assessed as increase in oxidative stress by measuring lipid ROS level at 10 to 20 uM by Western blot analysis; format: cell-based; details: filed as activator, dose 10-20 µM
Cell membrane [14] = test: Induction of mitochondrial membrane depolarization in human A549 cells assessed as increases in mitochondrial Ca2+ concentration by Rhod-2 AM probe based flow cytometric analysis; format: cell membranes
NCI-H460 = test: Antiproliferative activity against human NCI-H460 cells assessed as inhibition of cell growth incubated for 24 to 72 hrs by CCK8 assay; format: functional, cell-based
[15] = molecular target: Bax inhibitor 1 (Homo sapiens) (UniProt P55061); test: Thermal stabilization of TMBIM6 in human A549 cells at 54 to 60 degreeC at 100 uM incubated for 2 hrs by CETSA based Western blot analysis; format: cell-based
Cell membrane [16] = test: Induction of mitochondrial membrane depolarization in human A549 cells assessed as increases in mitochondrial Ca2+ concentration incubated for 8 hrs by Rhod-2 AM probe based flow cytometric analysis; format: cell membranes
[17] = molecular target: T1, Cystine/glutamate transporter (Homo sapiens) (UniProt Q9UPY5); test: Inhibition of SLC7A11 in human […] cells at 10 to 20 uM by Western blot analysis; format: cell-based; details: A549, dose 10-20 µM
T1 sequence (whole entry): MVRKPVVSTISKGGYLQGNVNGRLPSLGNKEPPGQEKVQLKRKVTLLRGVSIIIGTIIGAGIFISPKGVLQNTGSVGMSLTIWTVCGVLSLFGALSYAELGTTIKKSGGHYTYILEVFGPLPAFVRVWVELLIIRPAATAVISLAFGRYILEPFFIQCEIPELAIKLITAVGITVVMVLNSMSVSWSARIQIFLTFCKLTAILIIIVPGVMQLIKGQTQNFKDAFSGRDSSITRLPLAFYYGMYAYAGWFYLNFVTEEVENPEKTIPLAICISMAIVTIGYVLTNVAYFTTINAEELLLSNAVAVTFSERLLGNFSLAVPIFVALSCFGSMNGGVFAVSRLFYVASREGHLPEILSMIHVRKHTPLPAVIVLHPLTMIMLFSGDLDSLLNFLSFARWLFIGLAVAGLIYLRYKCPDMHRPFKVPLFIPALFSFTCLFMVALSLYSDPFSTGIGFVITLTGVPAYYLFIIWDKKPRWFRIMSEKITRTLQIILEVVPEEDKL

[18] = molecular target: Bax inhibitor 1 (Homo sapiens) (UniProt P55061); test: Thermal stabilization of TMBIM6 in human A549 cells at 46 to 60 degreeC at 100 uM incubated for 2 hrs by CETSA based Western blot analysis; format: cell-based
[19] = molecular target: Bax inhibitor 1 (Homo sapiens) (UniProt P55061); test: Competitive binding affinity to TMBIM6 in human A549 cells in presence of 2 to 6 fold of 13-oxyingenol dodecanoate by immunofluorescence analysis; format: cell-based
A549 [20] = test: Antiproliferative activity against human A549 cells assessed as inhibition of cell growth incubated for 48 hrs by CCK8 assay; format: functional, cell-based; details: A549, 48 h
[21] = molecular target: Bax inhibitor 1 (Homo sapiens) (UniProt P55061); test: Binding affinity to TMBIM6 at Met-68 residue in human A549 cells by high-resolution mass spectrometric analysis; format: cell-based
[22] = molecular target: Bax inhibitor 1 (Homo sapiens) (UniProt P55061); test: Competitive binding affinity to TMBIM6 in human A549 cells assessed as reduction in 13-oxyingenol dodecanoate binding to protein at 4 uM in presence of 6 fold 13-oxyingenol dodecanoate by pull down Western blot analysis; format: cell-based
[23] = molecular target: Bax inhibitor 1 (Homo sapiens) (UniProt P55061); test: Binding affinity to TMBIM6 in human A549 cells assessed as increase in co-localization in cytoplasm at 4 uM by immunofluorescence analysis; format: cell-based
A549 [24] = test: Antiproliferative activity against human A549 cells assessed as inhibition of cell growth incubated for 24 hrs by CCK8 assay; format: functional, cell-based; details: A549, 24 h
[25] = molecular target: Bax inhibitor 1 (Homo sapiens) (UniProt P55061); test: Binding affinity to TMBIM6 in human A549 cells at 4 uM by pull down Western blot analysis; format: cell-based
A549 [26] = test: Induction of lipid ROS accumulation in human A549 cells at 20 uM incubated for 24 hrs in presence of NAC by DCFH/C11-BODIPY probe based flow cytometric analysis; format: functional, cell-based
A549 [27] = test: Induction of autophagy in human A549 cells incubated for 12 hrs by MDC staining based flow cytometric analysis; format: functional, cell-based
A549 [28] = test: Induction of ROS accumulation in human A549 cells at 20 uM by DCFH/C11-BODIPY probe based flow cytometric analysis; format: functional, cell-based; details: time 2-24 hrs, TDE = time-dependent effect
A549 [29] = test: Induction of lipid ROS accumulation in human A549 cells at 20 uM incubated for 24 hrs in presence of DFO by DCFH/C11-BODIPY probe based flow cytometric analysis; format: functional, cell-based
A549 [30] = test: Stabilization of […] in human A549 cells assessed as reduction in polyubiquitination at 20 uM in presence of MG132 by immunoprecipitation analysis; format: cell-based
A549 [31] = test: Induction of ferroptosis in human A549 cells assessed as increase in malondialdehyde content at 5 to 20 uM; format: functional, cell-based; details: dose 5-20 µM
[32] = molecular target: Bax inhibitor 1 (Homo sapiens) (UniProt P55061); test: Binding affinity to TMBIM6 in human A549 cells by cluster analysis; format: cell-based
A549 [33] = test: Induction of autophagy in human A549 cells assessed as effect on PINK1 protein expression upto 20 uM incubated for 24 hrs by Western blot analysis; format: functional, cell-based
[34] = molecular target: T1, Cystine/glutamate transporter (Homo sapiens); test: Inhibition of SLC7A11 in human […] cells at 5 to 20 uM by Western blot analysis; format: cell-based; details: A549, dose 5-20 µM
A549 [35] = test: Induction of lipid ROS accumulation in human A549 cells at 20 uM incubated for 24 hrs in presence of Fer-1 by DCFH/C11-BODIPY probe based flow cytometric analysis; format: functional, cell-based
A549 [36] = test: Induction of ROS accumulation in human A549 cells incubated for 24 hrs by DCFH/C11-BODIPY probe based flow cytometric analysis; format: functional, cell-based; details: dose 5-20 µM
A549 [37] = test: Activation of Nrf2-Keap1-HO-1 signaling pathway in human A549 cells assessed as increase in oxidative stress by measuring lipid ROS level at 5 to 20 uM by Western blot analysis; format: cell-based; details: filed as activator, dose 5-20 µM
A549 [38] = test: Induction of autophagy in human A549 cells assessed as effect on LC3II protein expression upto 20 uM incubated for 24 hrs by Western blot analysis; format: functional, cell-based
A549 [39] = test: Induction of lipid ROS accumulation in human A549 cells at 20 uM incubated for 24 hrs in presence of Lip-1 by DCFH/C11-BODIPY probe based flow cytometric analysis; format: functional, cell-based

Bax inhibitor 1 (Homo sapiens), sequence (P55061 whole entry): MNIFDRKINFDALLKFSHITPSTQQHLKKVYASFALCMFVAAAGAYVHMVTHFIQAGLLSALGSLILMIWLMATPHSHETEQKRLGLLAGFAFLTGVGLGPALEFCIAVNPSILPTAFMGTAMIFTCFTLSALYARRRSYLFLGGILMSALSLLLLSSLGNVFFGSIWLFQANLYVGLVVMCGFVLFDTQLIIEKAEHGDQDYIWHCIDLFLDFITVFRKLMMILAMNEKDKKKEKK
Non-selective voltage-gated ion channel VDAC1 (Homo sapiens), sequence (P21796 whole entry): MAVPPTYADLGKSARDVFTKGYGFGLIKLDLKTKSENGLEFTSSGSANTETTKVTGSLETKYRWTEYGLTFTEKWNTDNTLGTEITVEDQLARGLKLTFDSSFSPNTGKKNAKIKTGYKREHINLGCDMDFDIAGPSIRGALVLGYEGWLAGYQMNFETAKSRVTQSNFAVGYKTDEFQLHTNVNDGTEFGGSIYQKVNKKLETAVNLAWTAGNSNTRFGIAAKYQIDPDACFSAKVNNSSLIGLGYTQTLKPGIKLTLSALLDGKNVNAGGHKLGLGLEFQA

For `CCCCCCCCCCCC(=O)O[C@@]12C[C@@H](C)[C@]34C=C(C)[C@H](OC(=O)c5ccc(F)cc5)[C@@]3(O)[C@H](O)C(CO)=C[C@H](C4=O)[C@@H]1C2(C)C`, the Activity (A549 [1]) was “Active”, the Activity (A549 [2]) was “Active” and the Activity (A549 [3]) was “Active”. For the same compound, the selectivity ratio [4] was 19.8, the Activity (Cell membrane [5]) was “Active” and the IC50 (HepG2) was 21.1 µM. The Activity (A549 [6]) was “Active”, the IC50 (A549 [7]) was 2.6 µM and the Activity (A549 [8]) was “Active”. The Activity (A549 [9]) was “Active”, the Activity [10] was “Active” and the Activity (A549 [11]) was “Active”. For the same compound, the Activity (A549 [12]) was “Active”, the Activity (A549 [13]) was “Active” and the Activity (Cell membrane [14]) was “Active”. The IC50 (NCI-H460) was 20.8 µM, the Activity [15] was “Active” and the Activity (Cell membrane [16]) was “Active”. For the same compound, the inhibition [17] was “Active” and the Activity [18] was “Active”.
In the case of `CCCCCCCCCCCC(=O)O[C@@]12C[C@@H](C)[C@]34C=C(C)[C@H](OC(=O)c5ccc([N+](=O)[O-])cc5)[C@@]3(O)[C@H](O)C(COC(=O)c3ccc([N+](=O)[O-])cc3)=C[C@H](C4=O)[C@@H]1C2(C)C`, the Activity (A549 [1]) is reported as “Active”, the Activity (A549 [2]) is reported as “Active” and the Activity (A549 [3]) is reported as “Active”. The selectivity ratio [4] was 8.2, the Activity (Cell membrane [5]) was “Active” and the IC50 (HepG2) was greater than 50 µM. For the same compound, the Activity (A549 [6]) was “Active”, the IC50 (A549 [7]) was 6.1 µM and the Activity (A549 [8]) was “Active”. The Activity (A549 [9]) was “Active”, the Activity [10] was “Active” and the Activity (A549 [11]) was “Active”. For the same compound, the Activity (A549 [12]) was “Active”, the Activity (A549 [13]) was “Active” and the Activity (Cell membrane [14]) was “Active”. The IC50 (NCI-H460) was 1 µM, the Activity [15] was “Active” and the Activity (Cell membrane [16]) was “Active”. For the same compound, the inhibition [17] was “Active” and the Activity [18] was “Active”.
For `C#CCCC1(CCNC(=O)O[C@H]2C(C)=C[C@]34C(=O)[C@@H](C=C(CO)[C@@H](O)[C@]23O)[C@@H]2C(C)(C)[C@]2(OC(=O)CCCCCCCCCCC)C[C@H]4C)N=N1`, the Activity [19] was “Active”, the IC50 (A549 [20]) was 13.8 µM and the Activity [21] was “Active”. For the same compound, the Activity [22] was “Active”, the Activity [23] was “Active” and the IC50 (A549 [24]) was 8.1 µM. The Activity [25] was “Active”.
For `CCCCCCCCCCCC(=O)O[C@@]12C[C@@H](C)[C@]34C=C(C)[C@H](O)[C@@]3(O)[C@H](O)C(CO)=C[C@H](C4=O)[C@@H]1C2(C)C`, the Activity (A549 [26]) was “inactive”, the Activity (A549 [2]) was “Active” and the Activity (A549 [27]) was “Dose-Dependent Effect”. For the same compound, the IC50 (A549 [20]) was 17.5 µM, the Activity (A549 [3]) was “Active” and the Activity (A549 [28]) was “Tde”. For the same compound, the Activity (A549 [29]) was “inactive”, the selectivity ratio [4] was 11.1 and the Activity (A549 [30]) was “Active”. The IC50 (HepG2) was 5.3 µM, the Activity (A549 [31]) was “Active” and the Activity (A549 [6]) was “Active”. For the same compound, the Activity [32] was “Active”, the IC50 (A549 [7]) was 3.9 µM and the Activity (A549 [33]) was “Active”. The inhibition [34] was “Active”, the Activity (A549 [9]) was “Active” and the Activity [10] was “Active”. The Activity (A549 [35]) was “inactive”, the Activity (A549 [36]) was “Dose-Dependent Effect” and the IC50 (A549 [24]) was 8.67 µM. For the same compound, the Activity (A549 [37]) was “Active”, the Activity (A549 [12]) was “Active” and the Activity (Cell membrane [14]) was “Active”. For the same compound, the IC50 (NCI-H460) was 7 µM, the Activity [15] was “Active” and the Activity (A549 [38]) was “Active”. The Activity (Cell membrane [16]) was “Active”, the Activity (A549 [39]) was “inactive” and the Activity [18] was “Active”.
